Data as given in PubChem BioAssay AID248 (DTP/NCI, 2004).
“And” between values parts separate entries of the source, which are not always exact repeats. Equal entries are not always repeated. Toxic doses and inconclusive results are not listed. Rule as the data show it: active = T/C of 150% or more; inactive = T/C below 125%.

Test system: L1210 leukemia ip in BDF1 mice, survival T/C
Test: NCI In Vivo Anticancer Drug Screen. Data for tumor model L1210 Leukemia (intraperitoneal) in B6D2F1 (BDF1) mice
Settings: endpoint: mean survival time, higher = longer survival
Method in brief: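 Transplantable tumor model; survival measured in treated vs vehicle control mice. Value = treated/control.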

[1] = dose: 100.0 mg/kg/injection, schedule: Q01DX001 (ip), vehicle: saline
[2] = dose: 200.0 mg/kg/injection, schedule: Q01DX001 (ip), vehicle: saline
[3] = dose: 400.0 mg/kg/injection, schedule: Q01DX001 (ip), vehicle: saline
[4] = dose: 100.0 mg/kg/injection, schedule: Q01DX009 (ip), vehicle: Klucel (hydroxypropylcellulose) (HPC)
[5] = dose: 200.0 mg/kg/injection, schedule: Q01DX009 (ip), vehicle: Klucel (hydroxypropylcellulose) (HPC)
[6] = dose: 400.0 mg/kg/injection, schedule: Q01DX009 (ip), vehicle: Klucel (hydroxypropylcellulose) (HPC)
[7] = dose: 50.0 mg/kg/injection, schedule: Q01DX009 (ip), vehicle: Klucel (hydroxypropylcellulose) (HPC)
[8] = dose: 100.0 mg/kg/injection, schedule: Q04DX003 (ip), vehicle: Klucel (hydroxypropylcellulose) (HPC)
[9] = dose: 100.0 mg/kg/injection, schedule: Q01DX001 (ip), vehicle: Klucel (hydroxypropylcellulose) (HPC)
[10] = dose: 200.0 mg/kg/injection, schedule: Q01DX001 (ip), vehicle: Klucel (hydroxypropylcellulose) (HPC)
[11] = dose: 400.0 mg/kg/injection, schedule: Q01DX001 (ip), vehicle: Klucel (hydroxypropylcellulose) (HPC)

Measured: T/C

CC(=O)O/N=C(\C)C12CCCCC1C(O)CCC2 (stereo unspecified)
inactive: [1] 91 % of control | dose: 100.0 mg/kg/injection, schedule: Q04DX003 (ip), vehicle: saline 94 % of control | [2] 91 % of control | dose: 200.0 mg/kg/injection, schedule: Q04DX003 (ip), vehicle: saline 101 % of control | [3] 91 % of control | dose: 400.0 mg/kg/injection, schedule: Q04DX003 (ip), vehicle: saline 104 % of control

Cc1cccc(N(CCOC(=O)Nc2cccc(Cl)c2)CCOC(=O)Nc2cccc(Cl)c2)c1
inactive: [2] 100 % of control | [3] 89 % of control

CC(C)CC(N=C(NC(CC(C)C)C(=O)O)c1ccccc1)C(=O)O (stereo unspecified)
inactive: [4] 108 % of control | [5] 105 % of control | [6] 95 % of control

O=c1c2ccccc2nnn1-c1ccc([N+](=O)[O-])cc1
inactive: [1] 97 % of control | [2] 94 % of control | [3] 95 % of control

O=C(NN(c1ccccc1)c1cccc2ccccc12)c1ccccc1
inactive: [7] 103 % of control | [4] 103 % of control | [8] 89 % of control | [5] 97 % of control | dose: 200.0 mg/kg/injection, schedule: Q04DX003 (ip), vehicle: Klucel (hydroxypropylcellulose) (HPC) 93 % of control | [6] 100 % of control | dose: 400.0 mg/kg/injection, schedule: Q04DX003 (ip), vehicle: Klucel (hydroxypropylcellulose) (HPC) 94 % of control

CCCCc1c(N)nc(N)nc1-c1ccccc1
inactive: [9] 112 % of control | [10] 105 % of control | [11] 94 % of control

Cn1cc[n+](C)c1
inactive: [1] 102 % of control | [2] 97 % of control | [3] 100 % of control

O=C1C=CC(=O)N1
inactive: dose: 0.62 mg/kg/injection, schedule: Q01DX009 (ip), vehicle: saline 90 % of control | dose: 1.25 mg/kg/injection, schedule: Q01DX009 (ip), vehicle: saline 93 % of control | dose: 1.25 mg/kg/injection, schedule: Q04DX003 (ip), vehicle: saline 92 % of control | dose: 2.5 mg/kg/injection, schedule: Q01DX009 (ip), vehicle: saline 90 % of control | dose: 2.5 mg/kg/injection, schedule: Q04DX003 (ip), vehicle: saline 96 % of control | dose: 3.74 mg/kg/injection, schedule: Q01DX009 (ip), vehicle: saline with Tween-80 96 % of control | dose: 5.0 mg/kg/injection, schedule: Q01DX001 (ip), vehicle: acetone 95 % of control

O=NC1C(Cl)C2CC1C1c3ccccc3C21 (stereo unspecified)
inactive: [1] 95 % of control | dose: 100.0 mg/kg/injection, schedule: Q01DX009 (ip), vehicle: saline 89 % of control | [2] 104 % of control | dose: 200.0 mg/kg/injection, schedule: Q01DX009 (ip), vehicle: saline 93 % of control | [3] 93 % of control | dose: 400.0 mg/kg/injection, schedule: Q01DX009 (ip), vehicle: saline 89 % of control

C1C[N+]2(CCO1)CC[N+]1(CCOCC1)CC2
inactive: dose: 100.0 mg/kg/injection, schedule: Q04DX002 (ip), vehicle: saline 104 % of control | dose: 200.0 mg/kg/injection, schedule: Q04DX002 (ip), vehicle: saline 96 % of control | dose: 400.0 mg/kg/injection, schedule: Q04DX002 (ip), vehicle: saline 100 % of control

CCOC(=O)NP(=O)(Nc1ccccc1)Nc1ccccc1
inactive: dose: 50.0 mg/kg/injection, schedule: Q01DX001 (ip), vehicle: alcohol 104 % of control | dose: 100.0 mg/kg/injection, schedule: Q01DX001 (ip), vehicle: alcohol 98 % of control | dose: 200.0 mg/kg/injection, schedule: Q01DX001 (ip), vehicle: alcohol 102 % of control | dose: 400.0 mg/kg/injection, schedule: Q01DX001 (ip), vehicle: alcohol 104 % of control

COc1ccc(/C(=N\O)C(C)=O)cc1OC
inactive: dose: 100.0 mg/kg/injection, schedule: Q04DX002 (ip), vehicle: Klucel (hydroxypropylcellulose) (HPC) 103 % of control | dose: 200.0 mg/kg/injection, schedule: Q04DX002 (ip), vehicle: Klucel (hydroxypropylcellulose) (HPC) 103 % of control | dose: 400.0 mg/kg/injection, schedule: Q04DX002 (ip), vehicle: Klucel (hydroxypropylcellulose) (HPC) 91 % of control

COC(=O)c1coc(C(=O)N2CCCC2)c1C(=O)O
inactive: dose: 75.0 mg/kg/injection, schedule: Q04DX003 (ip), vehicle: Klucel (hydroxypropylcellulose) (HPC) 93 % of control | [9] 103 % of control | dose: 150.0 mg/kg/injection, schedule: Q04DX003 (ip), vehicle: Klucel (hydroxypropylcellulose) (HPC) 105 % of control | [10] 101 % of control | dose: 300.0 mg/kg/injection, schedule: Q04DX003 (ip), vehicle: Klucel (hydroxypropylcellulose) (HPC) 98 % of control | [11] 103 % of control

COC(=O)C1=C(NC(=O)Nc2ccc(Cl)cc2)OC(C)(C)C1c1ccc(Cl)cc1 (stereo unspecified)
inactive: dose: 12.5 mg/kg/injection, schedule: Q01DX001 (ip), vehicle: saline 92 % of control | dose: 12.5 mg/kg/injection, schedule: Q01DX009 (ip), vehicle: saline 86 % of control | dose: 12.5 mg/kg/injection, schedule: Q04DX003 (ip), vehicle: acetone 93 % of control | dose: 25.0 mg/kg/injection, schedule: Q01DX001 (ip), vehicle: saline 87 % of control | dose: 25.0 mg/kg/injection, schedule: Q01DX009 (ip), vehicle: saline 90 % of control | dose: 25.0 mg/kg/injection, schedule: Q04DX003 (ip), vehicle: acetone 100 % of control | dose: 50.0 mg/kg/injection, schedule: Q01DX001 (ip), vehicle: saline 86 % of control | dose: 50.0 mg/kg/injection, schedule: Q04DX003 (ip), vehicle: acetone 96 % of control

CN(C)C(=S)Oc1ccccn1
inactive: dose: 25.0 mg/kg/injection, schedule: Q04DX003 (ip), vehicle: Klucel (hydroxypropylcellulose) (HPC) 106 % of control | dose: 50.0 mg/kg/injection, schedule: Q04DX003 (ip), vehicle: Klucel (hydroxypropylcellulose) (HPC) 104 % of control | [8] 102 % of control and 105 % of control

C=CS(=O)(=O)c1ccccc1
inactive: dose: 18.0 mg/kg/injection, schedule: Q04DX003 (ip), vehicle: saline with Tween-80 102 % of control | dose: 25.0 mg/kg/injection, schedule: Q01DX009 (ip), vehicle: Klucel (hydroxypropylcellulose) (HPC) 91 % of control | dose: 36.0 mg/kg/injection, schedule: Q04DX003 (ip), vehicle: saline with Tween-80 104 % of control | [7] 91 % of control | dose: 72.0 mg/kg/injection, schedule: Q04DX003 (ip), vehicle: saline with Tween-80 98 % of control | [4] 94 % of control | dose: 100.0 mg/kg/injection, schedule: Q04DX003 (ip), vehicle: saline with Tween-80 97 % of control | dose: 200.0 mg/kg/injection, schedule: Q04DX003 (ip), vehicle: saline with Tween-80 92 % of control | dose: 400.0 mg/kg/injection, schedule: Q04DX003 (ip), vehicle: saline with Tween-80 95 % of control

O=C(Nc1cccc(C2=NCCN2)c1)c1ccc(N=Nc2ccc(C(=O)Nc3cccc(C4=NCCN4)c3)cc2)cc1
inactive: dose: 93.0 mg/kg/injection, schedule: Q01DX Z (ip), vehicle: water 93 % of control | dose: 186.0 mg/kg/injection, schedule: Q01DX Z (ip), vehicle: water 100 % of control

CCCCCCCC(N)CC(=O)O (stereo unspecified)
inactive: [4] 105 % of control | [5] 97 % of control | [6] 107 % of control
